Drawing on the supplement of paper PMC10307832, this text covers relative viability for nine cell lines.

What all share (assay): relative viability (nuclei count vs DMSO), 5 days (fraction); higher = more cells survive
Compound in assay [1]: COc1cc(N2CCC(N3CCN(C)CC3)CC2)ccc1Nc1ncc(Cl)c(Nc2ccccc2S(=O)(=O)C(C)C)n1 [NVP-TAE684] + CC1(C)CCC(c2ccc(Cl)cc2)=C(CN2CCN(c3ccc(C(=O)NS(=O)(=O)c4ccc(N[C@H](CCN5CCOCC5)CSc5ccccc5)c(S(=O)(=O)C(F)(F)F)c4)cc3)CC2)C1 [Navitoclax] (partner 0.5 µM)
In short, it runs like this: (§1)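 Lung cancer cell lines were seeded in 1536-well plates and dosed by pin tool the next day, with either a single drug or a fixed anchor-drug dose combined with five library-drug doses (not always all listed) spaced in √10 steps. Five days later, one step fixed the cells and stained their nuclei (final 0.05% Triton X-100, 1% formaldehyde, 1 ug/ml Hoechst), and nuclei were counted on 4× images. Relative viability is the nuclei count in treated wells divided by the count in vehicle wells, and each value is the median of duplicate plates.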

Compound in assay [2]: COc1cc2/c(=N/c3ccc(Br)cc3F)nc[nH]c2cc1OCC1CCN(C)CC1 [Vandetanib] + O=C(CCCCCCC(=O)Nc1ccccc1)NO [Vorinostat] (partner 1 µM)
An outline of the steps:
as §1

Compound in assay [3]: COc1cc(N2CCC(N3CCN(C)CC3)CC2)ccc1Nc1ncc(Cl)c(Nc2ccccc2S(=O)(=O)C(C)C)n1 [NVP-TAE684] + CCNC(=O)c1noc(-c2cc(C(C)C)c(O)cc2O)c1-c1ccc(CN2CCOCC2)cc1 [Luminespib] (partner 0.01 µM)
An outline of the steps:
as §1

Compound in assay [4]: COc1cc(N2CCC(N3CCN(C)CC3)CC2)ccc1Nc1ncc(Cl)c(Nc2ccccc2S(=O)(=O)C(C)C)n1 [NVP-TAE684] + Cc1cc(Nc2cc(N3CCN(C)CC3)nc(Sc3ccc(NC(=O)C4CC4)cc3)n2)n[nH]1 [Tozasertib] (partner 0.1 µM)
In short, it runs like this:
as §1

Compound in assay [5]: COc1cc(N2CCC(N3CCN(C)CC3)CC2)ccc1Nc1ncc(Cl)c(Nc2ccccc2S(=O)(=O)C(C)C)n1 [NVP-TAE684] + O=C(c1cc(Cc2n[nH]c(=O)c3ccccc23)ccc1F)N1CCN(C(=O)C2CC2)CC1 [Olaparib] (partner 8 µM)
An outline of the steps:
as §1

In the case of NCI-H2347, the relative viability in assay [1] (first compound 0.2 µM) was found to be 0.716; in assay [1] (first compound 0.6325 µM) it was 0.826; in assay [1] (first compound 2 µM) it was 0.752; in assay [2] (first compound 0.02 µM), 0.643; in assay [2] (first compound 0.06325 µM), 0.387; in assay [2] (first compound 0.2 µM) it was 0.575. The relative viability was determined as 0.678 in assay [2] (first compound 0.6325 µM); 0.574 in assay [2] (first compound 2 µM); 0.245 in assay [3] (first compound 0.2 µM); 0.264 in assay [3] (first compound 0.6325 µM); 0.45 in assay [3] (first compound 2 µM); 0.59 in assay [4] (first compound 0.2 µM). In addition, the relative viability in assay [4] (first compound 0.6325 µM) came out at 0.487; in assay [4] (first compound 2 µM), 0.359; in assay [5] (first compound 0.2 µM), 0.573; in assay [5] (first compound 0.6325 µM), 0.57; in assay [5] (first compound 2 µM), 0.49.

Consider NCI-H2405, for which the relative viability worked out at 0.897 in assay [1] (first compound 0.2 µM); 0.709 in assay [1] (first compound 0.6325 µM); 0.437 in assay [1] (first compound 2 µM); 1.02 in assay [2] (first compound 0.02 µM); 0.885 in assay [2] (first compound 0.06325 µM); 0.97 in assay [2] (first compound 0.2 µM). The relative viability in assay [2] (first compound 0.6325 µM) came out at 1.14; in assay [2] (first compound 2 µM), 0.898; in assay [3] (first compound 0.2 µM), 0.703; in assay [3] (first compound 0.6325 µM), 0.694; in assay [3] (first compound 2 µM), 0.386; in assay [4] (first compound 0.2 µM), 0.742. For the same cell line, the relative viability was determined as 0.664 in assay [4] (first compound 0.6325 µM); 0.35 in assay [4] (first compound 2 µM); 0.923 in assay [5] (first compound 0.2 µM); 0.825 in assay [5] (first compound 0.6325 µM); 0.481 in assay [5] (first compound 2 µM).

For NCI-H3122, the relative viability worked out at 0.282 in assay [1] (first compound 0.2 µM); 0.525 in assay [1] (first compound 0.6325 µM); 0.176 in assay [1] (first compound 2 µM); 0.95 in assay [2] (first compound 0.02 µM); 0.965 in assay [2] (first compound 0.06325 µM); 1.08 in assay [2] (first compound 0.2 µM). Moreover, the relative viability in assay [2] (first compound 0.6325 µM) amounted to 1.02; in assay [2] (first compound 2 µM), 0.994; in assay [3] (first compound 0.2 µM) it was 0.0817; in assay [3] (first compound 0.6325 µM), 0.0775; in assay [3] (first compound 2 µM), 0.068; in assay [4] (first compound 0.2 µM) it was 0.156. The relative viability in assay [4] (first compound 0.6325 µM) came out at 0.091; in assay [4] (first compound 2 µM) it was 0.118; in assay [5] (first compound 0.2 µM) it was 0.342; in assay [5] (first compound 0.6325 µM), 0.225; in assay [5] (first compound 2 µM), 0.111.

On to PC-3 [JPC-3], for which the relative viability in assay [1] (first compound 0.2 µM) was determined as 0.862; in assay [1] (first compound 0.6325 µM) it was 0.822; in assay [1] (first compound 2 µM), 0.658; in assay [2] (first compound 0.02 µM), 0.808; in assay [2] (first compound 0.06325 µM), 0.739; in assay [2] (first compound 0.2 µM) it was 0.492. The relative viability came out at 0.449 in assay [2] (first compound 0.6325 µM); 0.348 in assay [2] (first compound 2 µM); 0.614 in assay [3] (first compound 0.2 µM); 0.639 in assay [3] (first compound 0.6325 µM); 0.601 in assay [3] (first compound 2 µM); 0.926 in assay [4] (first compound 0.2 µM). Besides, the relative viability turned out to be 0.86 in assay [4] (first compound 0.6325 µM), 0.584 in assay [4] (first compound 2 µM), 1.32 in assay [5] (first compound 0.2 µM) and 1.02 in assay [5] (first compound 0.6325 µM).

On to PC-14, for which the relative viability in assay [1] (first compound 0.2 µM) worked out at 1.13; in assay [1] (first compound 0.6325 µM), 1.05; in assay [1] (first compound 2 µM) it was 0.894; in assay [2] (first compound 0.02 µM) it was 0.774; in assay [2] (first compound 0.06325 µM) it was 0.619; in assay [2] (first compound 0.2 µM), 0.493. Also, the relative viability in assay [2] (first compound 0.6325 µM) was determined as 0.107; in assay [2] (first compound 2 µM) it was 0.0824; in assay [3] (first compound 0.2 µM), 0.157; in assay [3] (first compound 2 µM), 0.144; in assay [4] (first compound 0.2 µM) it was 0.627; in assay [4] (first compound 0.6325 µM), 0.531. For the same cell line, the relative viability in assay [4] (first compound 2 µM) was 0.461; in assay [5] (first compound 0.2 µM) it was 0.237; in assay [5] (first compound 0.6325 µM), 0.255; in assay [5] (first compound 2 µM), 0.0711.

RERF-LC-KJ: the relative viability in assay [1] (first compound 0.2 µM) was determined as 1.14; in assay [1] (first compound 0.6325 µM), 1.04; in assay [1] (first compound 2 µM), 0.67; in assay [2] (first compound 0.02 µM), 0.689; in assay [2] (first compound 0.06325 µM), 0.607; in assay [2] (first compound 0.2 µM) it was 0.724. The relative viability in assay [2] (first compound 0.6325 µM) was 0.608; in assay [2] (first compound 2 µM) it was 0.536; in assay [3] (first compound 0.2 µM), 1.65; in assay [3] (first compound 0.6325 µM) it was 1.21; in assay [3] (first compound 2 µM) it was 0.587; in assay [4] (first compound 0.2 µM), 0.469. The relative viability was 0.488 in assay [4] (first compound 0.6325 µM); 0.268 in assay [4] (first compound 2 µM); 1.1 in assay [5] (first compound 0.2 µM); 0.758 in assay [5] (first compound 0.6325 µM); 0.547 in assay [5] (first compound 2 µM).

Take SK-LU-1: the relative viability in assay [1] (first compound 0.2 µM) was 1.12; in assay [1] (first compound 0.6325 µM), 0.88; in assay [1] (first compound 2 µM), 0.206; in assay [2] (first compound 0.02 µM) it was 0.879; in assay [2] (first compound 0.06325 µM), 0.494; in assay [2] (first compound 0.2 µM), 0.798. Moreover, the relative viability in assay [2] (first compound 0.6325 µM) stood at 0.918; in assay [2] (first compound 2 µM) it was 0.767; in assay [3] (first compound 0.2 µM), 0.188; in assay [3] (first compound 0.6325 µM) it was 0.217; in assay [3] (first compound 2 µM), 0.167; in assay [4] (first compound 0.2 µM), 0.333. Moreover, the relative viability in assay [4] (first compound 0.6325 µM) stood at 0.305; in assay [4] (first compound 2 µM), 0.216; in assay [5] (first compound 0.2 µM), 0.483; in assay [5] (first compound 0.6325 µM), 0.425; in assay [5] (first compound 2 µM), 0.352.

For the cell line SK-MES-1, the relative viability in assay [1] (first compound 0.2 µM) was determined as 1.29; in assay [1] (first compound 0.6325 µM) it was 1.22; in assay [1] (first compound 2 µM), 0.78; in assay [2] (first compound 0.02 µM), 1.05; in assay [2] (first compound 0.06325 µM) it was 0.916; in assay [2] (first compound 0.2 µM), 1.1. Also, the relative viability in assay [2] (first compound 0.6325 µM) turned out to be 0.949; in assay [2] (first compound 2 µM), 0.795; in assay [3] (first compound 0.2 µM), 0.842; in assay [3] (first compound 0.6325 µM) it was 0.76; in assay [3] (first compound 2 µM), 0.321; in assay [4] (first compound 0.2 µM) it was 0.958. The relative viability turned out to be 0.892 in assay [4] (first compound 0.6325 µM); 0.48 in assay [4] (first compound 2 µM); 0.794 in assay [5] (first compound 0.2 µM); 0.668 in assay [5] (first compound 0.6325 µM); 0.405 in assay [5] (first compound 2 µM).

With SW 1573, the relative viability in assay [1] (first compound 0.2 µM) was determined as 0.904; in assay [1] (first compound 0.6325 µM), 0.959; in assay [1] (first compound 2 µM), 0.737; in assay [2] (first compound 0.02 µM), 0.635; in assay [2] (first compound 0.06325 µM) it was 0.674; in assay [2] (first compound 0.6325 µM), 0.957. The relative viability in assay [2] (first compound 2 µM) came out at 0.751; in assay [3] (first compound 0.2 µM) it was 0.185; in assay [3] (first compound 0.6325 µM), 0.0996; in assay [3] (first compound 2 µM), 0.0857; in assay [4] (first compound 0.2 µM) it was 0.216; in assay [4] (first compound 0.6325 µM), 0.16. In addition, the relative viability turned out to be 0.139 in assay [4] (first compound 2 µM), 0.519 in assay [5] (first compound 0.2 µM), 0.401 in assay [5] (first compound 0.6325 µM) and 0.148 in assay [5] (first compound 2 µM).
